For one test, the target named is T1, BRAF V600E (Homo sapiens, UniProt P15056+Q96SW2, V600E).
T1 construct: knock-in of the HiBiT tag to the endogenous BRAF V600E locus; host or cells: A375.10 (A375 clonal line, CRISPR HiBiT knock-in at the endogenous BRAF V600E locus)
The test is described as follows: BRAF V600E HiBiT Degradation Assay. The test is classed as cell-based. Conditions: A375.10 cells, BRAF V600E. The method in brief:
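Endogenous HiBiT knock-in on BRAF V600E in A375 cells (clone A375.10); 11-point half-log series, top 10 μM, 2, 6 or 24 h at 37° C. Lytic HiBiT luminescence, background-subtracted, normalized to DMSO; 4-parameter fit gives DC50, Emax (residual protein) and IP (inflection point).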
In general terms: The HiBiT peptide binds its large partner to form an active luciferase.

The subject of the next test is A375-NRAS^Q61K cells. The test is described as follows: CTGlo Cell Viability Assay, A375-NRAS^Q61K (A375.11) cells, 96 hours. Type of test: cell-based, human. Conditions: A375.11 (A375-NRAS^Q61K) cells; for Emax / CTGlo A375.11 96 hours Emax: lowest % viability achieved. The method, boiled down:
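Viability as CellTiter-Glo ATP luminescence after 96 h compound exposure at 37 °C; A375.11 (BRAF V600E/NRAS Q61K) cells at 250/well, top final concentration 10 μM in half-log steps. Signal was background-corrected and set relative to DMSO controls. A 4-parameter logistic fit gave GI50 (50% crossing) and Emax.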

[1] abbreviates: 2 hours, inflection point, read-out: HiBiT-Degradation A375.10 BRAF 2 hours IP.
Where [2] appears, read: 2 hours, read-out: HiBiT-Degradation A375.10 BRAF 2 hours DC50.
[3] abbreviates: 2 hours, residual protein remaining, read-out: HiBiT-Degradation A375.10 BRAF 2 hours Emax.
The mark [4] stands for this setting: 2 hours, residual protein remaining.

The structures appear in SMILES notation. Like-named read-outs stand apart in the source and are kept apart here.

T1 sequence (P15056 whole entry V600E): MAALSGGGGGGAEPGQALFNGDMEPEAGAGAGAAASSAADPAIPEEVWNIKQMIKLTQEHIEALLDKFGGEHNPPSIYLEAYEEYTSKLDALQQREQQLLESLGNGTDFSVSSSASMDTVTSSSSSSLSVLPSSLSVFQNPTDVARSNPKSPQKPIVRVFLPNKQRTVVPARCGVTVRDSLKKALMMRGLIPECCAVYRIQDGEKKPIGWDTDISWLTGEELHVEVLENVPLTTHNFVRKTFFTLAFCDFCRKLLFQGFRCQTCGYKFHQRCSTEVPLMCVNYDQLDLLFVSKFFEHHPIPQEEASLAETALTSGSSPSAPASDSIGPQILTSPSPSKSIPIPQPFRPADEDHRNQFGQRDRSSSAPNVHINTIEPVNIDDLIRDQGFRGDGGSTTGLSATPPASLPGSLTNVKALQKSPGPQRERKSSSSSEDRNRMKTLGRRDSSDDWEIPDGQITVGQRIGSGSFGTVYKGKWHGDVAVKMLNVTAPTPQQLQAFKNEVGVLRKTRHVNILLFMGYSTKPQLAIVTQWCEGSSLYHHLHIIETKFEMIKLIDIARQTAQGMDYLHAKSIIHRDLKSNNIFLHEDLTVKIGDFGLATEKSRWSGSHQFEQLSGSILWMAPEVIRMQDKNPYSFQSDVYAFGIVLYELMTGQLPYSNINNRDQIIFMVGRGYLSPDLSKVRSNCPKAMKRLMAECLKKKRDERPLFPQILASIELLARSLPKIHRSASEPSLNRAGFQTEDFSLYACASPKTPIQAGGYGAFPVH
T1 sequence (Q96SW2 whole entry): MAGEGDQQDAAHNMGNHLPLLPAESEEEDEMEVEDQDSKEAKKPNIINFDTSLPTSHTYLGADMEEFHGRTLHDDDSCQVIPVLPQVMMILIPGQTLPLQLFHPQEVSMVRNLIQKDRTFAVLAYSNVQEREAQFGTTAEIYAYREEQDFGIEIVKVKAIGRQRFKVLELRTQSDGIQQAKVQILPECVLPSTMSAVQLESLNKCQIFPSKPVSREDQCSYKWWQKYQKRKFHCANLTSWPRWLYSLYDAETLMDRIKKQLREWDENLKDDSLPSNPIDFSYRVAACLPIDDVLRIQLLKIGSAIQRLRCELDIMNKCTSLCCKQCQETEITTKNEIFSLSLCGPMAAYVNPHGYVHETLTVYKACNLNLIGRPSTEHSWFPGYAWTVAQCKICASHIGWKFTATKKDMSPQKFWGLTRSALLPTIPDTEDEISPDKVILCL
T1 sequence (Q16531 whole entry partner): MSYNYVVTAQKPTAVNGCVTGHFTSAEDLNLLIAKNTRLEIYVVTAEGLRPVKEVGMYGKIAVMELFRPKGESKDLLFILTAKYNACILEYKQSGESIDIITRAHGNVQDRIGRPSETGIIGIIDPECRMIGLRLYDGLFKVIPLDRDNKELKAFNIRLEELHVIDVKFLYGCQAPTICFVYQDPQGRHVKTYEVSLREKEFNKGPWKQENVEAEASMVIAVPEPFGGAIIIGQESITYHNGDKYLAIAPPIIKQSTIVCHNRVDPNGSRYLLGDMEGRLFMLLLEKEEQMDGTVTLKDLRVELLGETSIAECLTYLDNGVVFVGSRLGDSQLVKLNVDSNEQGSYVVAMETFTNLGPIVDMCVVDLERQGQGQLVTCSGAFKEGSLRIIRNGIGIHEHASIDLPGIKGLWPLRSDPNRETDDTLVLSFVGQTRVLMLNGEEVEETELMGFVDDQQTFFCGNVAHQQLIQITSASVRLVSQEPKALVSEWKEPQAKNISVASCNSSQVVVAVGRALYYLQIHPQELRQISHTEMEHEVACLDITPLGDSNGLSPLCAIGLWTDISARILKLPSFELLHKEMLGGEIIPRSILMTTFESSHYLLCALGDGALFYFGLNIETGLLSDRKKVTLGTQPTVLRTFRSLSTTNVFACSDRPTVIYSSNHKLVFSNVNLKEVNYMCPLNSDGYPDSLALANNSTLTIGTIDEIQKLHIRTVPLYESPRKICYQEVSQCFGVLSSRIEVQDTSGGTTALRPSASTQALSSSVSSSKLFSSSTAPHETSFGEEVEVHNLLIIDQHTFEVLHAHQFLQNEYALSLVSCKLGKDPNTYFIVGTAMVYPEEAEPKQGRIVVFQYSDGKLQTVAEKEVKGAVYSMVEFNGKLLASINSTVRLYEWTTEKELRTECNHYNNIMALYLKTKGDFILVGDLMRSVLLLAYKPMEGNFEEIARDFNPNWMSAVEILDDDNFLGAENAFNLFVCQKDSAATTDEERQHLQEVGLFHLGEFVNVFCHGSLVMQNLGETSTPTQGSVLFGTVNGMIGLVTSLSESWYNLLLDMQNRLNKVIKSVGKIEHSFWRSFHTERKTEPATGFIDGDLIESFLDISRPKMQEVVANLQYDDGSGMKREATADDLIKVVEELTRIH

For `CCN(C)S(=O)(=O)Nc1ccc(F)c(Oc2ccc3ncn([C@@H]4COC5(C4)CN(C4CCC(c6cc7c(cc6F)c(N6CCC(=O)NC6=O)nn7C)CC4)C5)c(=O)c3c2)c1C#N` (single isomer, unassigned) [Compound 237], the DC50 on BRAF V600E (setting [1]) and at BRAF V600E (setting [2]) was below 1 µM throughout. Further, the Emax on BRAF V600E (setting [3]) was below 50%; with A375-NRAS^Q61K cells (Homo sapiens, 96 h), 50 to 90%. In the test with A375-NRAS^Q61K cells, the concentration for 50% growth inhibition (GI50) (usually the concentration at which growth is held to half of that of the control) was above 10 µM.

Take `CCN(C)S(=O)(=O)Nc1ccc(F)c(Oc2ccc3ncn([C@@H]4CO[C@@]5(CCN(C6CCC(c7cc8c(cc7F)c(N7CCC(=O)NC7=O)nn8C)CC6)C5)C4)c(=O)c3c2)c1C#N` (single isomer, unassigned) [Compound 287]: the “HiBiT-Degradation A375.10 BRAF 2 hours Emax” value on BRAF V600E (setting [4]) was “*** (<=50%)”. The DC50 at BRAF V600E (HiBiT, 24 hours, read-out: HiBiT-Degradation A375.10 BRAF 24 hours DC50) was below 1 µM; on BRAF V600E (HiBiT, 24 hours, read-out: HiBiT-Degradation A375.10 BRAF 24 hours IP) it was below 1 µM. Besides, at BRAF V600E (HiBiT, 24 hours, read-out: HiBiT-Degradation A375.10 BRAF 24 hours Emax), the Emax was below 50%. This molecule also gave a GI50 with A375-NRAS^Q61K cells below 1 µM. In addition, the “CTGlo A375.11 96 hours Emax” value with A375-NRAS^Q61K cells is listed as “*** (<=50%)”.

As to `Cn1nc(N2CCC(=O)NC2=O)c2cc(F)c(N3CC4(CC(N5CCC6(CC5)CC(n5cnc7ccc(Oc8c(F)ccc(NS(=O)(=O)N9CCOCC9)c8C#N)cc7c5=O)C6)C4)C3)cc21` [Compound 262, N-[2-cyano-3-[3-[7-[2-[3-(2,4-dioxohexahydropyrimidin-1-yl)-5-fluoro-1-methyl-indazol-6-yl]-2-azaspiro[3.3]heptan-6-yl]-7-azaspiro[3.5]nonan-2-yl]-4-oxo-quinazolin-6-yl]oxy-4-fluoro-phenyl]morpholine-4-sulfonamide], the DC50 on BRAF V600E (setting [1]) and on BRAF V600E (setting [2]) was below 1 µM throughout. Besides, the Emax at BRAF V600E (setting [3]) is below 50%; in the test with A375-NRAS^Q61K cells (Homo sapiens, 96 h), 50 to 90%. In the test on A375-NRAS^Q61K cells (Homo sapiens, 96 h), this molecule displayed a GI50 below 1 µM.

Consider `CCN(C)S(=O)(=O)Nc1ccc(F)c(C(=O)c2ccc3ncn(C4CC5(CCN(C6CCC(c7ccc(NC8CCC(=O)NC8=O)cc7F)CC6)CC5)C4)c(=O)c3c2)c1F` (single isomer, unassigned) [Compound 199, 3-[7-[4-[4-[(2,6-dioxo-3-piperidyl)amino]-2-fluoro-phenyl]cyclohexyl]-7-azaspiro[3.5]nonan-2-yl]-6-[3-[[ethyl(methyl)sulfamoyl]amino]-2,6-difluoro-benzoyl]-4-oxo-quinazoline], for which the DC50 at BRAF V600E (setting [1]) and at BRAF V600E (setting [2]) was below 1 µM each time. For the same molecule, the Emax at BRAF V600E (setting [3]) was below 50%; in the test with A375-NRAS^Q61K cells (Homo sapiens, 96 h) it was 50 to 90%. This molecule gave a 50% growth inhibitory concentration (GI50) in the test with A375-NRAS^Q61K cells (Homo sapiens, 96 h) of 1 to 10 µM.

Consider `CCN(C)S(=O)(=O)Nc1ccc(F)c(Oc2ccc3ncn([C@@H]4CCC5(CCN(C6CCC(c7ccc(NC8CCC(=O)NC8=O)cc7F)CC6)CC5)C4)c(=O)c3c2)c1C#N` (single isomer, unassigned) [Compound 22], for which the DC50 at BRAF V600E (setting [1]) and at BRAF V600E (setting [2]) was below 1 µM each time. The Emax on BRAF V600E (setting [3]) lay in the range of 50 to 90%; in the test with A375-NRAS^Q61K cells (Homo sapiens, 96 h) it was 50 to 90%. This molecule also registered a GI50 with A375-NRAS^Q61K cells (Homo sapiens, 96 h) above 10 µM.

As to `CN(CCO)S(=O)(=O)Nc1ccc(F)c(Oc2ccc3ncn([C@H]4COC5(CCN([C@H]6C[C@@H](c7cc8c(cc7F)c(N7CCC(=O)NC7=O)nn8C)C6)CC5)C4)c(=O)c3c2)c1C#N` [Compound 165, (3R)-3-[6-[2-cyano-6-fluoro-3-[[2-hydroxyethyl(methyl)sulfamoyl]amino]phenoxy]-4-oxo-quinazolin-3-yl]-8-[3-[3-(2,4-dioxohexahydropyrimidin-1-yl)-5-fluoro-1-methyl-indazol-6-yl]cyclobutyl]-1-oxa-8-azaspiro[4.5]decane], the DC50 at BRAF V600E (setting [1]) and at BRAF V600E (setting [2]) was below 1 µM in each case. The Emax was in the range of 50 to 90% at BRAF V600E (setting [3]) and 50 to 90% with A375-NRAS^Q61K cells (Homo sapiens, 96 h). Besides, the GI50 in the test with A375-NRAS^Q61K cells (Homo sapiens, 96 h) is above 10 µM.

`CO[C@@H]1CCN(S(=O)(=O)Nc2ccc(F)c(Oc3ccc4ncc(C5CC6(CCN(C7CC8(C7)CN(c7cc9c(cc7F)c(N7CCC(=O)NC7=O)nn9C)C8)CC6)C5)nc4c3)c2C#N)C1` (stereo partly drawn) [Compound 278, (3R)-N-[2-cyano-3-[3-[7-[2-[3-(2,4-dioxohexahydropyrimidin-1-yl)-5-fluoro-1-methyl-indazol-6-yl]-2-azaspiro[3.3]heptan-6-yl]-7-azaspiro[3.5]nonan-2-yl]quinoxalin-6-yl]oxy-4-fluoro-phenyl]-3-methoxy-pyrrolidine-1-sulfonamide]: the Emax at BRAF V600E (setting [3]) is below 50%; in the test with A375-NRAS^Q61K cells (Homo sapiens, 96 h) it was below 50%. In addition, the DC50 is below 1 µM on BRAF V600E (read-out: HiBiT-Degradation A375.10 BRAF 2 hours DC50, 2 hours) and below 1 µM at BRAF V600E (read-out: HiBiT-Degradation A375.10 BRAF 2 hours IP, 2 hours, inflection point). Further, the GI50 with A375-NRAS^Q61K cells (Homo sapiens, 96 h) was below 1 µM.

For `CCN(C)S(=O)(=O)Nc1ccc(F)c(Oc2ccc3ncn(C4CCC5(CC4)CCN(C4CCC(c6ccc(NC7CCC(=O)NC7=O)cc6F)CC4)CC5)c(=O)c3c2)c1C#N` (single isomer, unassigned) [Compound 11, 9-[6-[2-cyano-3-[[ethyl(methyl)sulfamoyl]amino]-6-fluoro-phenoxy]-4-oxo-quinazolin-3-yl]-3-[4-[4-[(2,6-dioxo-3-piperidyl)amino]-2-fluoro-phenyl]cyclohexyl]-3-azaspiro[5.5]undecane], the DC50 on BRAF V600E (setting [1]) and at BRAF V600E (setting [2]) was below 1 µM in each case. Moreover, the “HiBiT-Degradation A375.10 BRAF 2 hours Emax” value on BRAF V600E (setting [4]) is recorded as “*** (<=50%)”. The 50% growth inhibitory concentration (GI50) in the test with A375-NRAS^Q61K cells is above 10 µM. In the test with A375-NRAS^Q61K cells (Homo sapiens, 96 h), this molecule displayed an Emax of 50 to 90%.

In the case of `Cn1nc(N2CCC(=O)NC2=O)c2cc(F)c(N3CC4(CC(N5CCC6(CC5)C[C@@H](n5cnc7ccc(Oc8c(F)ccc(NS(=O)(=O)C9CCOCC9)c8C#N)cc7c5=O)CO6)C4)C3)cc21` [Compound 252, N-[2-cyano-3-[3-[(3R)-8-[2-[3-(2,4-dioxohexahydropyrimidin-1-yl)-5-fluoro-1-methyl-indazol-6-yl]-2-azaspiro[3.3]heptan-6-yl]-1-oxa-8-azaspiro[4.5]decan-3-yl]-4-oxo-quinazolin-6-yl]oxy-4-fluoro-phenyl]tetrahydropyran-4-sulfonamide], the values for the DC50 on BRAF V600E (setting [1]) and at BRAF V600E (setting [2]) were below 1 µM and above 10 µM, respectively. Also, the Emax at BRAF V600E (setting [3]) was 50 to 90%; with A375-NRAS^Q61K cells (Homo sapiens, 96 h), 50 to 90%. The concentration for 50% growth inhibition (GI50) in the test on A375-NRAS^Q61K cells (Homo sapiens, 96 h) is above 10 µM.

With `CCN(C)S(=O)(=O)Nc1ccc(F)c(Oc2ccc3ncn(C4CCC(N5CC6(CCN(c7cc8c(cc7F)c(N7CCC(=O)NC7=O)nn8C)CC6)C5)CC4)c(=O)c3c2)c1C#N` (single isomer, unassigned) [Compound 221, 6-[2-cyano-3-[[ethyl(methyl)sulfamoyl]amino]-6-fluoro-phenoxy]-3-[4-[7-[3-(2,4-dioxohexahydropyrimidin-1-yl)-5-fluoro-1-methyl-indazol-6-yl]-2,7-diazaspiro[3.5]nonan-2-yl]cyclohexyl]-4-oxo-quinazoline], the DC50 at BRAF V600E (setting [1]) and at BRAF V600E (setting [2]) was below 1 µM each time. In addition, the Emax at BRAF V600E (setting [3]) is below 50%; in the test with A375-NRAS^Q61K cells (Homo sapiens, 96 h), 50 to 90%. This molecule also came in with a GI50 in the test on A375-NRAS^Q61K cells (Homo sapiens, 96 h) of 1 to 10 µM.

As to `CO[C@@H]1CCN(S(=O)(=O)Nc2ccc(F)c(Oc3ccc4ncc(C5CC6(CCN(C7CCC(c8cc9c(cc8F)c(N8CCC(=O)NC8=O)nn9C)CC7)CC6)C5)nc4c3)c2C#N)C1` (single isomer, unassigned) [Compound 285], on BRAF V600E (setting [2]), the DC50 is below 1 µM. In addition, the concentration for 50% growth inhibition (GI50) in the test on A375-NRAS^Q61K cells was below 1 µM.

Consider `CCN(C)S(=O)(=O)Nc1ccc(F)c(Oc2ccc3ncc(OCC4CCN(C5CCC(c6ccc(NC7CCC(=O)NC7=O)cc6F)CC5)CC4)nc3c2)c1C#N` (single isomer, unassigned) [Compound 117, 7-[2-cyano-3-[[ethyl(methyl)sulfamoyl]amino]-6-fluoro-phenoxy]-2-[[1-[4-[4-[(2,6-dioxo-3-piperidyl)amino]-2-fluoro-phenyl]cyclohexyl]-4-piperidyl]methoxy]quinoxaline], for which the DC50 on BRAF V600E (setting [1]) was below 1 µM. On BRAF V600E (setting [2]), the DC50 is below 1 µM. Further, on BRAF V600E (setting [4]), the “HiBiT-Degradation A375.10 BRAF 2 hours Emax” value is listed as “*** (<=50%)”. In the test with A375-NRAS^Q61K cells, the 50% growth inhibitory concentration (GI50) was below 1 µM; the “CTGlo A375.11 96 hours Emax” value was “** (<90% and >50%)”.

For `CCN(C)S(=O)(=O)Nc1ccc(F)c(Oc2ccc3ncn([C@@H]4C[C@@H]5CN(C6CCC(c7cc8c(cc7F)c(N7CCC(=O)NC7=O)nn8C)CC6)C[C@@H]5C4)c(=O)c3c2)c1C#N` (single isomer, unassigned) [Compound 17], the DC50 on BRAF V600E (setting [1]) and at BRAF V600E (setting [2]) was below 1 µM throughout. Further, the “HiBiT-Degradation A375.10 BRAF 2 hours Emax” value at BRAF V600E (setting [4]) was “** (<90% and >50%)”. The same molecule registered a GI50 with A375-NRAS^Q61K cells above 10 µM. In addition, the “CTGlo A375.11 96 hours Emax” value with A375-NRAS^Q61K cells was “** (<90% and >50%)”.

For `N#Cc1c(NS(=O)(=O)N2CC[C@@H](F)C2)ccc(F)c1Oc1ccc2ncn(C3COC4(CCN(C5CCC(c6ccc(NC7CCC(=O)NC7=O)cc6F)CC5)CC4)C3)c(=O)c2c1` (single isomer, unassigned) [Compound 143], the DC50 on BRAF V600E (setting [1]) and at BRAF V600E (setting [2]) was below 1 µM in each case. Further, the Emax on BRAF V600E (setting [3]) was below 50%; with A375-NRAS^Q61K cells (Homo sapiens, 96 h), below 50%. Moreover, the GI50 with A375-NRAS^Q61K cells (Homo sapiens, 96 h) is below 1 µM.

The values are drawn from patent US20260297060A1, “COMPOUNDS FOR THE DEGRADATION OF MUTANT BRAF” (C4 THERAPEUTICS, INC., priority 2023, published 2026).
